This passage reports inhibition, Activity and IC50 results from ChEMBL document CHEMBL4130448, “Novel SERMs based on 3-aryl-4-aryloxy-2H-chromen-2-one skeleton - A possible way to dual ERα/VEGFR-2 ligands for treatment of breast cancer” (Eur J Med Chem, 2017).

Data set [1] has as its target Vascular endothelial growth factor receptor 2 (Homo sapiens) (UniProt P35968). Description: Inhibition of VEGFR2 phosphorylation in human MCF7 cells at 2 uM incubated for 24 hrs by Western blot method relative to sunitinib. It is filed as cell-based. A general note: Immunoblotting shows a protein as a band on a membrane.
The subject of data set [2] is MCF7. Kind of data set: Induction of cell cycle arrest in human MCF7 cells assessed as reduction in accumulation at G2/M phase incubated for 24 hrs by propidium iodide staining flow cytometry. It is filed as functional, cell-based. Background: A flow cytometer gives signals particle by particle.
Data set [3] relates to MCF7. Kind of data set: Induction of cell cycle arrest in human MCF7 cells assessed as reduction in accumulation at S phase incubated for 24 hrs by propidium iodide staining flow cytometry. It is filed as functional, cell-based.
The target of data set [4] is Vascular endothelial growth factor receptor 2 (Homo sapiens) (UniProt P35968). Description: Inhibition of VEGFR2 in human MCF7 cells assessed as reduction in p-ERK1/2 protein level incubated for 24 hrs by Western blot method. It is filed as cell-based.
Chain of Vascular endothelial growth factor receptor 2 (Homo sapiens) (P35968 whole entry): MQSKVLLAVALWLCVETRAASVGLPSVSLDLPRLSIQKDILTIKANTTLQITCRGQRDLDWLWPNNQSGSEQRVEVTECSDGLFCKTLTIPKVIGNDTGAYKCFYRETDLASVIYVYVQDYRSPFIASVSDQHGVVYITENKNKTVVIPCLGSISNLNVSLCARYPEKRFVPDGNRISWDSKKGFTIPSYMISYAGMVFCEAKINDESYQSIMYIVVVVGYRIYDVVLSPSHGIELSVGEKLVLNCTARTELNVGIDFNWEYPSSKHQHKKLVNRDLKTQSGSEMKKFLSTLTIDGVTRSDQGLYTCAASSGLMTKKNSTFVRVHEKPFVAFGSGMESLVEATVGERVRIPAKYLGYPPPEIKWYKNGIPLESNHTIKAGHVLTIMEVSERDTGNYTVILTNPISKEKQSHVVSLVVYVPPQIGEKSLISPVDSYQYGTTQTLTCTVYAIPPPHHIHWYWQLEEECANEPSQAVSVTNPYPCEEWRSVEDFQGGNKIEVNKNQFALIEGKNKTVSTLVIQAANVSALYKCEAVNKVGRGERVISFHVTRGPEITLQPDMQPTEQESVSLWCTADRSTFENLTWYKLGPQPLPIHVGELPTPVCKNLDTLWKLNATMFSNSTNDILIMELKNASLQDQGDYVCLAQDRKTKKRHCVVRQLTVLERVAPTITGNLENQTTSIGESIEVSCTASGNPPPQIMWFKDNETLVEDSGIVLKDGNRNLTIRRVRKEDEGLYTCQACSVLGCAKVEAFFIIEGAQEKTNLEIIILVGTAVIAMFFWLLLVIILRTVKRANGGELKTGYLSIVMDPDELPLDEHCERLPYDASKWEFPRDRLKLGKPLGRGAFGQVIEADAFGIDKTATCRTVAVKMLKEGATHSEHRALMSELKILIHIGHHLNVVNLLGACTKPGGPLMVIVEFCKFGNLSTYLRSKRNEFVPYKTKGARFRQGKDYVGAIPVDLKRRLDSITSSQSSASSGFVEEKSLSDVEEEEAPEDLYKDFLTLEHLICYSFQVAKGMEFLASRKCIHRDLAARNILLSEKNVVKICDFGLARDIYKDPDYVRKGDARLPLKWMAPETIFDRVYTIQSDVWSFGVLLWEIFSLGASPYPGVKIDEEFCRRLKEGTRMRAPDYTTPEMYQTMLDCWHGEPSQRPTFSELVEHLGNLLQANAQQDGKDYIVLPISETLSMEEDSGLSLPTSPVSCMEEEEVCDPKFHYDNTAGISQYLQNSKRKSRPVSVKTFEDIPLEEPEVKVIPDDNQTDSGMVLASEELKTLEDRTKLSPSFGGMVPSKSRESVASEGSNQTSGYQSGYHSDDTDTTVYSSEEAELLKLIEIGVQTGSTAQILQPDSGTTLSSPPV
For a further data set, the target named is T1, Estrogen receptor (Homo sapiens, UniProt P03372).
T1 sequence (P03372 whole entry): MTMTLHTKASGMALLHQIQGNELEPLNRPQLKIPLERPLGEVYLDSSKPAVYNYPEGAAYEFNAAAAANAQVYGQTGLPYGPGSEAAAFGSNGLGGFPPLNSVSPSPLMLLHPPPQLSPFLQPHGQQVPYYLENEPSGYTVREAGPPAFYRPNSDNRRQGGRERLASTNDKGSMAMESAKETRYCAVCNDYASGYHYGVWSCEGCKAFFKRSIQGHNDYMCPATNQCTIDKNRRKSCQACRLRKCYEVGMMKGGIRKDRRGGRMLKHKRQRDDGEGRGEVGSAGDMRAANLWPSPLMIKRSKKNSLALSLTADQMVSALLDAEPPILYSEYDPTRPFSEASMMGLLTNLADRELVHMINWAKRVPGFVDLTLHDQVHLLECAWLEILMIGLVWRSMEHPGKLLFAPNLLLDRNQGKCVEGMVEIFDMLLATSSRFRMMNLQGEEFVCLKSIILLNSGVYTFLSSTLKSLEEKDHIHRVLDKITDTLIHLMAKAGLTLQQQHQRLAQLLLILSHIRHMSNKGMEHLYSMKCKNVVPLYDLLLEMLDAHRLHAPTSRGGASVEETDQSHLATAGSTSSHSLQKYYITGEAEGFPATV
Kind of data set: Displacement of fluorescent estrogen ligand from recombinant human ERalpha expressed in insect cells incubated for 2 hrs by polarization.

The next data set relates to HUVEC. Kind of data set: Antiangiogenic activity against HUVEC incubated for 48 hrs by MTT assay. It is filed as functional, cell-based. The settings on record: Homo sapiens.
Data set [5] has as its target Vascular endothelial growth factor receptor 2 (Homo sapiens) (UniProt P35968). Kind of data set: Inhibition of VEGFR2 phosphorylation in human MCF7 cells incubated for 24 hrs by Western blot method. It is filed as cell-based.
Data set [6] relates to MCF7. Description: Induction of cell cycle arrest in human MCF7 cells assessed as accumulation at G0/G1 phase at 4 uM incubated for 24 hrs by propidium iodide staining flow cytometry (reference value: 48.52%). It is filed as functional.
Data set [7] has as its system MCF7. Description: Induction of cell cycle arrest in human MCF7 cells assessed as accumulation at S phase at 4 uM incubated for 24 hrs by propidium iodide staining flow cytometry (reference value: 24.64%). It is filed as functional.
Data set [8] concerns MCF7. Kind of data set: Induction of cell cycle arrest in human MCF7 cells assessed as accumulation at G2/M phase at 4 uM incubated for 24 hrs by propidium iodide staining flow cytometry (reference value: 26.84%). It is filed as functional.
Data set [9] has as its system MCF7. Description: Induction of cell cycle arrest in human MCF7 cells assessed as accumulation at G2/M phase at 2 uM incubated for 24 hrs by propidium iodide staining flow cytometry (reference value: 26.84%). It is filed as functional.
Data set [10] relates to MCF7. Kind of data set: Induction of cell cycle arrest in human MCF7 cells assessed as accumulation at S phase at 2 uM incubated for 24 hrs by propidium iodide staining flow cytometry (reference value: 24.64%). It is filed as functional.
The subject of data set [11] is MCF7. Kind of data set: Effect on total ERK1/2 protein level in human MCF7 cells at 2 to 4 uM incubated for 24 hrs by Western blot method. It is filed as ADME, cell-based. Particulars: mcf7, 24 h.
For data set [12], the system named is MCF7. Description: Induction of cell cycle arrest in human MCF7 cells assessed as accumulation at G0/G1 phase at 6 uM incubated for 24 hrs by propidium iodide staining flow cytometry (reference value: 48.52%). It is filed as functional.
The target of data set [13] is Vascular endothelial growth factor receptor 2 (Homo sapiens) (UniProt P35968). Kind of data set: Inhibition of VEGFR2 in human MCF7 cells assessed as reduction in p-Raf1 protein level incubated for 24 hrs by Western blot method. It is filed as cell-based.
Data set [14] has the same target. Kind of data set: Inhibition of His-tagged human VEGFR2 at 40 uM incubated for 1 hr by HTRF assay.
For data set [15], the system named is MCF7. Description: Induction of cell cycle arrest in human MCF7 cells assessed as accumulation at G0/G1 phase incubated for 24 hrs by propidium iodide staining flow cytometry. It is filed as functional, cell-based.
Data set [16] relates to MCF7. Description: Induction of cell cycle arrest in human MCF7 cells assessed as accumulation at G0/G1 phase at 2 uM incubated for 24 hrs by propidium iodide staining flow cytometry (reference value: 48.52%). It is filed as functional.
Data set [17] relates to MCF7. Description: cells. The settings on record: Homo sapiens, MCF7, 48 h.
Description: Cytotoxicity in human MCF7 cells assessed as inhibition of cell growth incubated for 48 hrs by MTT assay
The test system of data set [18] is MCF7. Kind of data set: Induction of cell cycle arrest in human MCF7 cells assessed as accumulation at S phase at 6 uM incubated for 24 hrs by propidium iodide staining flow cytometry (reference value: 24.64%). It is filed as functional.
The test system of data set [19] is MCF7. Kind of data set: Induction of cell cycle arrest in human MCF7 cells assessed as accumulation at G2/M phase at 6 uM incubated for 24 hrs by propidium iodide staining flow cytometry (reference value: 26.84%). It is filed as functional.
Data set [20] deals with MCF7. Kind of data set: Effect on total Raf1 protein level in human MCF7 cells at 2 to 4 uM incubated for 24 hrs by Western blot method. It is filed as ADME, cell-based. The settings on record: mcf7, 24 h.
The subject of a further data set is Ishikawa. Kind of data set: cells. Particulars: Homo sapiens, 48 h.

What is called inhibition is the change of the read-out against control, counted positive when it falls. One may read the IC50 as the concentration that inhibits the measured activity by half.

Active and inactive are the calls of the source. No cut-off for these calls is given here.

Description for Ishikawa: Cytotoxicity in human Ishikawa cells assessed as inhibition of cell growth incubated for 48 hrs by MTT assay

With `O=c1oc2cc(O)ccc2c(Oc2ccc(OCCN3CCCCC3)cc2)c1-c1ccc(F)cc1`, the inhibition entry in data set [1] was “Active”. For the same molecule, the Activity result in the data set with MCF7 [2] was “Dose-dependent effect”; in the data set on MCF7 [3], “Dose-dependent effect”; in the data set with MCF7 [6], 65.37%; in the data set with MCF7 [7], 18.41%; in the data set on MCF7 [8], 16.22%; in the data set with MCF7 [9], 20.81%. Besides, the Activity in the data set with MCF7 [10] is 18.52%; with MCF7 [11] it was “Non-Toxic”; in the data set on MCF7 [12], 75.46%; in the data set on MCF7 [15], “Dose-dependent effect”; in the data set on MCF7 [16], 60.67%; in the data set on MCF7 [18] it was 14.69%. The Activity is reported as 9.85% in the data set on MCF7 [19] and “Non-Toxic” with MCF7 [20]. The inhibition result in data set [4] is “Dose-dependent effect”; in data set [5], “Dose-dependent effect”; in data set [13], “Dose-dependent effect”; in [14] it was 82.9%. Besides, the IC50 at Estrogen receptor came to 2190 nM; with HUVEC it was 15.7 µM; with MCF7 [17], 9.54 µM; in the data set with Ishikawa, 11.1 µM.
